Laboratory results taken from patent US20140235627A1, “ß2-ADRENOCEPTOR AGONIST FOR IMPROVEMENT OF EXERCISE TOLERANCE” (BOEHRINGER INGELHEIM INTERNATIONAL GMBH, priority 2012, published 2014).

Assays:
Type in all cases: in vivo, human
patients with COPD [1] = test: Endurance time during constant work rate cycle ergometry at 75% Wcap (studies 1222.37 and 1222.38); settings: after 6 weeks
Excerpt: While, the FDA COPD draft guidance for industry notes that—assessment of exercise capacity by treadmill or cycle ergometry combined with lung volume assessment potentially can be a tool to assess efficacy of a drug (Guidance for industry: chronic obstructive pulmonary disease: developing drugs for treatment (draft guidance, November 2007). Rockville: U.S. Department of Health and Human Services, Food and Drug Administration, Center for Drug Evaluation and Research (CDER) (2007)) two studies (1222.37 & 1222.38) were designed to evaluate the effects of olodaterol on improvement of exercise.
(§1) Constant work rate cycle ergometry at 75% Wcap was selected as the exercise modality based on previous experience with other bronchodilators. The primary efficacy endpoint was endurance time, while IC at isotime and the intensity of breathing discomfort at isotime were key secondary endpoints. Isotime was defined as the endurance time of the constant work rate exercise test of shortest duration, which ensured that IC and intensity of breathing discomfort were compared across treatments at the same time of exercise for an individual.
At baseline, the geometric mean exercise endurance time during constant work rate cycle ergometry to symptom limitation at 75% of maximal work capacity was 414 seconds (6 minutes 54 seconds) in study 1222.37 and 374 seconds (6 minutes 14 seconds) in study 1222.38.

patients with COPD [2] = test: Inspiratory capacity (IC) at isotime during exercise (studies 1222.37 and 1222.38); settings: after 6 weeks
Excerpt: as §1

patients with COPD [3] = test: Intensity of breathing discomfort (Borg Scale) at isotime during exercise (studies 1222.37 and 1222.38); settings: after 6 weeks
Excerpt: as §1

patients with COPD [4] = test: Rescue medication use (electronic diary) in 48-week pivotal studies; settings: for Reduction in daytime rescue bronchodilator use compared to placebo / Reduction in nighttime rescue bronchodilator use compared to placebo: at 48 weeks
Procedure: Additionally to that rescue medication use was assessed in 48-week pivotal studies using an electronic diary, indicated whether the bronchodilating effects of olodaterol provided sufficient symptomatic benefit to reduce the need for albuterol to control symptoms on a daily and nightly basis.

[5] = study 1222.37, olodaterol 10 μg
[6] = study 1222.38, olodaterol 10 μg
[7] = study 1222.37, olodaterol 5 μg, listed as olodaterol
[8] = study 1222.37, olodaterol 10 μg, listed as olodaterol
[9] = study 1222.38, olodaterol 5 μg, listed as olodaterol
[10] = study 1222.38, olodaterol 10 μg, listed as olodaterol

Question: What does the source list for `COc1ccc(CC(C)(C)NC[C@H](O)c2cc(O)cc3c2OCC(=O)N3)cc1` [Olodaterol]?
Answer: Adjusted Mean Endurance Time, Treatment Mean (SE) (patients with COPD [1]; study 1222.37, olodaterol 5 μg): 421.58 (13.459) Seconds; Endurance time increase compared with placebo (patients with COPD [1]; study 1222.37, olodaterol 5 μg): 14.0%; Adjusted Mean Endurance Time, Treatment Mean (SE) (patients with COPD [1]; [5]): 420.72 (13.602) Seconds; Endurance time increase compared with placebo (patients with COPD [1]; [5]): 13.8%; Adjusted Mean Endurance Time, Treatment Mean (SE) (patients with COPD [1]; study 1222.38, olodaterol 5 μg): 396.31 (13.680) Seconds; Endurance time increase compared with placebo (patients with COPD [1]; study 1222.38, olodaterol 5 μg): 11.8%; Adjusted Mean Endurance Time, Treatment Mean (SE) (patients with COPD [1]; [6]): 391.45 (13.566) Seconds; Endurance time increase compared with placebo (patients with COPD [1]; [6]): 10.5%; Adjusted Mean Inspiratory Capacity at Isotime During Exercise, Treatment mean (SE) (patients with COPD [2]; study 1222.37, olodaterol 5 μg): 2.099 (0.038) L; Inspiratory Capacity at Isotime, Mean (SE) compared to placebo (patients with COPD [2]; study 1222.37, olodaterol 5 μg): 0.182 (0.036) L; Inspiratory Capacity at Isotime, Mean (SE) compared to placebo (patients with COPD [2]; [7]): statistically significant increase; Adjusted Mean Inspiratory Capacity at Isotime During Exercise, Treatment mean (SE) (patients with COPD [2]; [5]): 2.091 (0.038) L; Inspiratory Capacity at Isotime, Mean (SE) compared to placebo (patients with COPD [2]; [5]): 0.174 (0.036) L; Inspiratory Capacity at Isotime, Mean (SE) compared to placebo (patients with COPD [2]; [8]): statistically significant increase; Adjusted Mean Inspiratory Capacity at Isotime During Exercise, Treatment mean (SE) (patients with COPD [2]; study 1222.38, olodaterol 5 μg): 2.246 (0.039) L; Inspiratory Capacity at Isotime, Mean (SE) compared to placebo (patients with COPD [2]; study 1222.38, olodaterol 5 μg): 0.084 (0.035) L; Inspiratory Capacity at Isotime, Mean (SE) compared to placebo (patients with COPD [2]; [9]): statistically significant increase; Adjusted Mean Inspiratory Capacity at Isotime During Exercise, Treatment mean (SE) (patients with COPD [2]; [6]): 2.328 (0.039) L; Inspiratory Capacity at Isotime, Mean (SE) compared to placebo (patients with COPD [2]; [6]): 0.166 (0.034) L; Inspiratory Capacity at Isotime, Mean (SE) compared to placebo (patients with COPD [2]; [10]): statistically significant increase; Intensity of Breathing Discomfort at Isotime During Exercise, Treatment mean (SE) (patients with COPD [3]; study 1222.37, olodaterol 5 μg): 5.104 (0.182) Borg Scale; Intensity of Breathing Discomfort at Isotime, Difference to placebo Mean (SE) (patients with COPD [3]; study 1222.37, olodaterol 5 μg): −0.766 (0.223) Borg Scale; Intensity of Breathing Discomfort at Isotime, Difference to placebo Mean (SE) (patients with COPD [3]; [7]): statistically significant reduction; Intensity of Breathing Discomfort at Isotime During Exercise, Treatment mean (SE) (patients with COPD [3]; [5]): 5.235 (0.185) Borg Scale; Intensity of Breathing Discomfort at Isotime, Difference to placebo Mean (SE) (patients with COPD [3]; [5]): −0.634 (0.225) Borg Scale; Intensity of Breathing Discomfort at Isotime, Difference to placebo Mean (SE) (patients with COPD [3]; [8]): statistically significant reduction; Intensity of Breathing Discomfort at Isotime During Exercise, Treatment mean (SE) (patients with COPD [3]; study 1222.38, olodaterol 5 μg): 5.250 (0.180) Borg Scale; Intensity of Breathing Discomfort at Isotime, Difference to placebo Mean (SE) (patients with COPD [3]; study 1222.38, olodaterol 5 μg): −0.336 (0.214) Borg Scale; Intensity of Breathing Discomfort at Isotime, Difference to placebo Mean (SE) (patients with COPD [3]; [9]): no significant differences; Intensity of Breathing Discomfort at Isotime During Exercise, Treatment mean (SE) (patients with COPD [3]; [6]): 5.520 (0.181) Borg Scale; Intensity of Breathing Discomfort at Isotime, Difference to placebo Mean (SE) (patients with COPD [3]; [6]): −0.066 (0.214) Borg Scale; Intensity of Breathing Discomfort at Isotime, Difference to placebo Mean (SE) (patients with COPD [3]; [10]): no significant differences; Reduction in daytime rescue bronchodilator use compared to placebo (patients with COPD [4]; 1222.11/12, 5 μg): −0.455 units; Reduction in nighttime rescue bronchodilator use compared to placebo (patients with COPD [4]; 1222.11/12, 5 μg): −0.497 units; Reduction in daytime rescue bronchodilator use compared to placebo (patients with COPD [4]; 1222.11/12, 10 μg): −0.574 units; Reduction in nighttime rescue bronchodilator use compared to placebo (patients with COPD [4]; 1222.11/12, 10 μg): −0.775 units; Reduction in daytime rescue bronchodilator use compared to placebo (patients with COPD [4]; 1222.13/14, 5 μg): −0.269 units; Reduction in nighttime rescue bronchodilator use compared to placebo (patients with COPD [4]; 1222.13/14, 5 μg): −0.530 units; Reduction in daytime rescue bronchodilator use compared to placebo (patients with COPD [4]; 1222.13/14, 10 μg): −0.337 units; Reduction in nighttime rescue bronchodilator use compared to placebo (patients with COPD [4]; 1222.13/14, 10 μg): −0.617 units; Reduction in daytime and nighttime rescue medication use relative to twice-daily formoterol (patients with COPD [4]; studies 1222.13, 1222.14, once-daily olodaterol): comparable to twice-daily formoterol
